Data taken from the Kinase Knowledgebase extract (Sharma et al. 2016).

These compounds were tested against ROCK1;ROCK2 (UniProt O75116) (assay: Inhibition of ROCK Kinase Activity).
Chain of ROCK1;ROCK2 (O75116 whole entry, looked up): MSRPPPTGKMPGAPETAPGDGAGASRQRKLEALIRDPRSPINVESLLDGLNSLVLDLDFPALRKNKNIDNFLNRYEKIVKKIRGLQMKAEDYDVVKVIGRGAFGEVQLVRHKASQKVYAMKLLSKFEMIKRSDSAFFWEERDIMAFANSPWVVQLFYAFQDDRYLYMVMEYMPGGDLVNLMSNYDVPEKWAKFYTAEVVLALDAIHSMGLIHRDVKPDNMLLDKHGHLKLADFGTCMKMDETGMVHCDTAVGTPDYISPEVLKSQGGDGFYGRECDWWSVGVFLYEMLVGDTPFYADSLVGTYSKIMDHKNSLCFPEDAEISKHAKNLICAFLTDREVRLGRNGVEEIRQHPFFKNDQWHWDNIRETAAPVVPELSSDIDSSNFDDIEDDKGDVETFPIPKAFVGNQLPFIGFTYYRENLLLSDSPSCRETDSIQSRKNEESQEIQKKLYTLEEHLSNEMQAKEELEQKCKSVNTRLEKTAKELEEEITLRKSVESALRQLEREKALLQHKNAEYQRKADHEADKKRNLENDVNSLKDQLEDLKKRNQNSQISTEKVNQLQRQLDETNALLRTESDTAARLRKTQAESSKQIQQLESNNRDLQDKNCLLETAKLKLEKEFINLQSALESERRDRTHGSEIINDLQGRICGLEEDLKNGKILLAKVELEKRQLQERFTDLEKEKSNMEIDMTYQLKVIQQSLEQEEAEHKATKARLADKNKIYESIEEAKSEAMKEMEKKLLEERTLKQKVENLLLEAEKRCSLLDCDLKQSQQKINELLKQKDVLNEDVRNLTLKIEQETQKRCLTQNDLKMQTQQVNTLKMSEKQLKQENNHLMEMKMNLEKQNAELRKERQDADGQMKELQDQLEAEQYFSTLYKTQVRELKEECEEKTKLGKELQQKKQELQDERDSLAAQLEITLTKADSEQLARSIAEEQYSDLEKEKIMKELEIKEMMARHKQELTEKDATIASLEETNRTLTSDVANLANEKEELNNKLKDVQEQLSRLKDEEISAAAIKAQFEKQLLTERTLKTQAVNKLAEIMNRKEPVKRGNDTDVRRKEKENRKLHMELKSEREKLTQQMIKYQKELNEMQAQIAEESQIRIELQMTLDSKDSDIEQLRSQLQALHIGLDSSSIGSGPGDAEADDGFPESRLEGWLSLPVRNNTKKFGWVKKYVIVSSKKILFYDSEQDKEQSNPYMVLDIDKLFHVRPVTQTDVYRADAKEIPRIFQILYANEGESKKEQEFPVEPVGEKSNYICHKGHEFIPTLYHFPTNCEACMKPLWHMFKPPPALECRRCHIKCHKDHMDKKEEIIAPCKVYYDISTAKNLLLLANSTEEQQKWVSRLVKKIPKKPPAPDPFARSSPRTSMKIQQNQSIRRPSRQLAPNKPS

Ki	SMILES
≤ 2 µM	O=C(Cc1ccccc1Cl)Nc1ccc2c(c1)C(=O)NC2=O
≤ 2 µM	COc1ccc(NCC(=O)Nc2ccc3c(c2)C(=O)NC3=O)cc1Cl
≤ 2 µM	O=C(CCc1ccccc1)Nc1ccc2c(c1)C(=O)NC2=O
≤ 2 µM	O=C(CSc1ccc(Cl)c(Cl)c1)Nc1ccc2c(c1)C(=O)NC2=O
≤ 2 µM	COc1cccc(NCC(=O)Nc2ccc3c(c2)C(=O)NC3=O)c1
≤ 2 µM	O=C(CSc1cccc(Cl)c1)Nc1ccc2c(c1)C(=O)NC2=O
≤ 2 µM	O=C(CSc1ccccc1C(F)(F)F)Nc1ccc2c(c1)C(=O)NC2=O
≤ 2 µM	O=C(CNc1cccc(OCc2ccccc2)c1)Nc1ccc2c(c1)C(=O)NC2=O
≤ 2 µM	O=C(Cc1ccc(Cl)c(Cl)c1)Nc1ccc2c(c1)C(=O)NC2=O
≤ 2 µM	O=C(CSc1ccc(F)cc1F)Nc1ccc2c(c1)C(=O)NC2=O
≤ 2 µM	Cc1cccc(NCC(=O)Nc2ccc3c(c2)C(=O)NC3=O)c1
≤ 2 µM	O=C(Cc1cc(F)c(Cl)cc1Cl)Nc1ccc2c(c1)C(=O)NC2=O
≤ 2 µM	O=C(Cc1ccc2c(c1)OCO2)Nc1ccc2c(c1)C(=O)NC2=O
≤ 2 µM	O=C(CSc1cccc2ccccc12)Nc1ccc2c(c1)C(=O)NC2=O
≤ 2 µM	O=C(CSc1cccc(Br)c1)Nc1ccc2c(c1)C(=O)NC2=O
≤ 2 µM	COc1ccc(CC(=O)Nc2ccc3c(c2)C(=O)NC3=O)cc1
≤ 2 µM	O=C(Cc1ccc(F)cc1F)Nc1ccc2c(c1)C(=O)NC2=O
≤ 2 µM	O=C(COc1ccccc1)Nc1ccc2c(c1)C(=O)NC2=O
≤ 2 µM	O=C(CNc1cccc(F)c1)Nc1ccc2c(c1)C(=O)NC2=O
≤ 2 µM	O=C(Cc1cccc(C(F)(F)F)c1)Nc1ccc2c(c1)C(=O)NC2=O
≤ 2 µM	O=C(Cc1ccc(Cl)cc1)Nc1ccc2c(c1)C(=O)NC2=O
≤ 2 µM	O=C(Cc1cccc(F)c1)Nc1ccc2c(c1)C(=O)NC2=O
≤ 2 µM	O=C(Cc1ccc(F)cc1Cl)Nc1ccc2c(c1)C(=O)NC2=O
≤ 2 µM	O=C(CNc1cccc2c1CCCC2)Nc1ccc2c(c1)C(=O)NC2=O
≤ 2 µM	CC(Oc1ccccc1)C(=O)Nc1ccc2c(c1)C(=O)NC2=O (stereo not given)
≤ 2 µM	O=C(CSc1cccc(O)c1)Nc1ccc2c(c1)C(=O)NC2=O
≤ 2 µM	O=C(Cc1cccc(Cl)c1)Nc1ccc2c(c1)C(=O)NC2=O
≤ 2 µM	O=C(CSc1ccccc1)Nc1ccc2c(c1)C(=O)NC2=O

Ki	SMILES
≤ 2 µM	O=C(CSc1cccc(Cl)c1Cl)Nc1ccc2c(c1)C(=O)NC2=O
≤ 2 µM	COc1cccc(CC(=O)Nc2ccc3c(c2)C(=O)NC3=O)c1
≤ 2 µM	O=C(Cc1cccc(O)c1)Nc1ccc2c(c1)C(=O)NC2=O
≤ 2 µM	Cc1ccccc1NCC(=O)Nc1ccc2c(c1)C(=O)NC2=O
≤ 2 µM	O=C(CSc1ccccc1F)Nc1ccc2c(c1)C(=O)NC2=O
≤ 2 µM	COc1cccc(OCC(=O)Nc2ccc3c(c2)C(=O)NC3=O)c1
≤ 2 µM	O=C(CSc1ccc(F)c(Cl)c1)Nc1ccc2c(c1)C(=O)NC2=O
≤ 2 µM	O=C(CSc1ccc(Cl)cc1Cl)Nc1ccc2c(c1)C(=O)NC2=O
≤ 2 µM	O=C(Cc1cccc(F)c1F)Nc1ccc2c(c1)C(=O)NC2=O
≤ 2 µM	Cc1ccc(OCC(=O)Nc2ccc3c(c2)C(=O)NC3=O)cc1
≤ 2 µM	O=C(CNc1ccc(F)c(Cl)c1)Nc1ccc2c(c1)C(=O)NC2=O
≤ 2 µM	O=C(Cc1ccc(F)cc1)Nc1ccc2c(c1)C(=O)NC2=O
≤ 2 µM	O=C(Cc1cccc(C(F)(F)F)c1F)Nc1ccc2c(c1)C(=O)NC2=O
≤ 2 µM	Cc1cc(C)cc(SCC(=O)Nc2ccc3c(c2)C(=O)NC3=O)c1
≤ 2 µM	O=C(CSc1ccc(F)cc1)Nc1ccc2c(c1)C(=O)NC2=O
≤ 2 µM	O=C(Cc1cc(F)ccc1F)Nc1ccc2c(c1)C(=O)NC2=O
≤ 2 µM	O=C(CNc1cccc(Cl)c1)Nc1ccc2c(c1)C(=O)NC2=O
≤ 2 µM	O=C(CNc1cccc2[nH]ccc12)Nc1ccc2c(c1)C(=O)NC2=O
≤ 2 µM	O=C(Cc1ccccc1F)Nc1ccc2c(c1)C(=O)NC2=O
≤ 2 µM	O=C(COc1ccc(Cl)cc1)Nc1ccc2c(c1)C(=O)NC2=O
≤ 2 µM	O=C(Cc1cc2c(cc1Cl)OCO2)Nc1ccc2c(c1)C(=O)NC2=O
≤ 2 µM	O=C(CSc1ccccc1Cl)Nc1ccc2c(c1)C(=O)NC2=O
≤ 2 µM	Cc1ccc(NCC(=O)Nc2ccc3c(c2)C(=O)NC3=O)c(C)c1
≤ 2 µM	O=C(Cc1cc(F)cc(F)c1F)Nc1ccc2c(c1)C(=O)NC2=O
≤ 2 µM	O=C(Cc1cc(Cl)ccc1F)Nc1ccc2c(c1)C(=O)NC2=O
≤ 2 µM	Cc1ccc(SCC(=O)Nc2ccc3c(c2)C(=O)NC3=O)cc1
≤ 2 µM	Cc1ccc(SCC(=O)Nc2ccc3c(c2)C(=O)NC3=O)c(C)c1
